Laboratory results as given in ChEMBL document CHEMBL4130462, “Natural isoflavone biochanin A as a template for the design of new and potent 3-phenylquinolone efflux inhibitors against Mycobacterium avium” (Eur J Med Chem, 2017).
≈ marks a conversion by molar mass, not a printed value.

How the values were obtained:
Mycobacterium avium [1] = settings: 104 mc'2 4
Mycobacterium avium [2] = settings: isolate MAV4
Mycobacterium avium [3] = settings: isolate MAV2
Mycobacterium avium [4] = settings: isolate MAV2; remark: listed apart in the source
Description: Inhibition of multidrug resistance efflux pump in Mycobacterium avium isolate MAV2 assessed as potentiation of clarithromycin -induced antibacterial activity by measuring clarithromycin MIC at 1/4 MIC incubated for 3 days by MTT assay (Rvb = >1024 ug/ml)

Mycobacterium avium [5] = settings: 104
Mycobacterium avium [6] = settings: 104 mc'2 3
Mycobacterium avium [7] = assay: Antimycobacterial activity against Mycobacterium avium isolate MAV1 assessed as reduction in bacterial viability incubated for 3 days by MTT assay; format: organism-based; settings: in vitro, 72 h
Mycobacterium avium [8] = settings: isolate MAV2; remark: listed apart in the source
Mycobacterium avium [9] = settings: isolate MAV3
Mycobacterium avium [10] = settings: isolate MAV1
Mycobacterium avium [11] = settings: isolate MAV4; remark: listed apart in the source
Mycobacterium avium [12] = settings: 104; remark: listed apart in the source
Description: Inhibition of multidrug resistance efflux pump in Mycobacterium avium 104 assessed as potentiation of clarithromycin -induced antibacterial activity by measuring clarithromycin MIC at 1/2 MIC incubated for 3 days by MTT assay

Mycobacterium avium [13] = settings: isolate MAV1; remark: listed apart in the source
Mycobacterium avium [14] = settings: isolate MAV4; remark: listed apart in the source
Description: Inhibition of multidrug resistance efflux pump in Mycobacterium avium isolate MAV4 assessed as potentiation of clarithromycin -induced antibacterial activity by measuring clarithromycin MIC at 1/2 MIC incubated for 3 days by MTT assay

Mycobacterium avium [15] = settings: 104 mc'2 4; remark: listed apart in the source
Mycobacterium avium [16] = settings: 104 mc'2 4; remark: listed apart in the source
Mycobacterium avium [17] = settings: isolate MAV4; remark: listed apart in the source
Description: Inhibition of multidrug resistance efflux pump in Mycobacterium avium isolate MAV4 assessed as potentiation of ethidium bromide-induced antibacterial activity by measuring ethidium bromide MIC at 1/4 MIC incubated for 3 days by MTT assay

Mycobacterium avium [18] = settings: isolate MAV2; remark: listed apart in the source
Mycobacterium avium [19] = settings: 104 mc'2 3; remark: listed apart in the source
Mycobacterium avium [20] = settings: 104 mc'2 4; remark: listed apart in the source
Mycobacterium avium [21] = settings: isolate MAV3; remark: listed apart in the source
Mycobacterium avium [22] = settings: 104 mc'2 3; remark: listed apart in the source
[23] = Safety index, ratio of MTC for test compound to MTC for thioridazine for cytotoxicity in human monocyte-derived macrophages; format: cell-based, Macrophage cell line
[24] = test system: Mycolicibacterium smegmatis; assay: Antimycobacterial activity against Mycobacterium smegmatis str. MC2 155 assessed as reduction in bacterial viability incubated for 3 days by MTT assay; format: organism-based; settings: 72 h
[25] = test system: Mycobacterium avium subsp. avium ATCC 25291
Mycobacterium avium [26] = settings: 104 mc'2 4; remark: listed apart in the source
Mycobacterium avium [27] = settings: isolate MAV1; remark: listed apart in the source
Mycobacterium avium [28] = settings: isolate MAV1; remark: listed apart in the source
Mycobacterium avium [29] = settings: 104; remark: listed apart in the source
Mycobacterium avium [30] = settings: isolate MAV1; remark: listed apart in the source
Description: Inhibition of multidrug resistance efflux pump in Mycobacterium avium isolate MAV1 assessed as potentiation of ofloxacin-induced antibacterial activity by measuring ofloxacin MIC at 1/2 MIC incubated for 3 days by MTT assay (Rvb = 4 ug/ml)

Mycobacterium avium [31] = settings: 104 mc'2 4; remark: listed apart in the source
Mycobacterium avium [32] = settings: in vivo, 72 h
Description: Antimycobacterial activity against Mycobacterium avium 104 mc'2 4 assessed as reduction in bacterial viability incubated for 3 days by MTT assay

Mycobacterium avium [33] = assay: Antimycobacterial activity against Mycobacterium avium ATCC 25291 assessed as reduction in bacterial viability incubated for 3 days by MTT assay; format: organism-based; settings: mycobacterium avium subsp. avium atcc 25291, 72 h
[34] = test system: Mycobacterium avium subsp. avium ATCC 25291; remark: listed apart in the source
Description: Inhibition of multidrug resistance efflux pump in Mycobacterium avium ATCC 25291 assessed as potentiation of clarithromycin -induced antibacterial activity by measuring clarithromycin MIC at 1/4 MIC incubated for 3 days by MTT assay

Mycobacterium avium [35] = settings: isolate MAV4; remark: listed apart in the source
Mycobacterium avium [36] = settings: isolate MAV3; remark: listed apart in the source
Mycobacterium avium [37] = settings: isolate MAV3; remark: listed apart in the source
Mycobacterium avium [38] = settings: isolate MAV4; remark: listed apart in the source
Mycobacterium avium [39] = settings: isolate MAV3; remark: listed apart in the source
Mycobacterium avium [40] = settings: in vivo, 72 h; remark: listed apart in the source
Description: Antimycobacterial activity against Mycobacterium avium 104 mc'2 3 assessed as reduction in bacterial viability incubated for 3 days by MTT assay

Mycobacterium avium [41] = settings: isolate MAV3; remark: listed apart in the source
Mycobacterium avium [42] = settings: 104; remark: listed apart in the source
Description: Inhibition of multidrug resistance efflux pump in Mycobacterium avium 104 assessed as potentiation of clarithromycin -induced antibacterial activity by measuring clarithromycin MIC at 1/4 MIC incubated for 3 days by MTT assay

[43] = test system: Mycobacterium avium subsp. avium ATCC 25291; remark: listed apart in the source
Mycobacterium avium [44] = settings: isolate MAV1; remark: listed apart in the source
Description: Inhibition of multidrug resistance efflux pump in Mycobacterium avium isolate MAV1 assessed as potentiation of ofloxacin-induced antibacterial activity by measuring ofloxacin MIC at 1/4 MIC incubated for 3 days by MTT assay (Rvb = 4 ug/ml)

Mycobacterium avium [45] = settings: 104 mc'2 4; remark: listed apart in the source
Mycobacterium avium [46] = settings: isolate MAV2; remark: listed apart in the source
Mycobacterium avium [47] = settings: isolate MAV1; remark: listed apart in the source
Mycobacterium avium [48] = settings: 104; remark: listed apart in the source
Mycobacterium avium [49] = settings: 104 mc'2 3; remark: listed apart in the source
Mycobacterium avium [50] = settings: 104; remark: listed apart in the source
[51] = test system: Mycobacterium avium subsp. avium ATCC 25291; remark: listed apart in the source
Description: Inhibition of multidrug resistance efflux pump in Mycobacterium avium ATCC 25291 assessed as potentiation of ethidium bromide-induced antibacterial activity by measuring ethidium bromide MIC at 1/4 MIC incubated for 3 days by MTT assay

Mycobacterium avium [52] = settings: isolate MAV1; remark: listed apart in the source
Mycobacterium avium [53] = settings: 104; remark: listed apart in the source
[54] = test system: Mycobacterium avium subsp. avium ATCC 25291; remark: listed apart in the source
Description: Inhibition of multidrug resistance efflux pump in Mycobacterium avium ATCC 25291 assessed as potentiation of clarithromycin -induced antibacterial activity by measuring clarithromycin MIC at 1/2 MIC incubated for 3 days by MTT assay

Mycobacterium avium [55] = settings: 104 mc'2 3; remark: listed apart in the source
Mycobacterium avium [56] = settings: 104 mc'2 3; remark: listed apart in the source
Mycobacterium avium [57] = settings: 104; remark: listed apart in the source
Mycobacterium avium [58] = settings: isolate MAV2; remark: listed apart in the source
Description: Inhibition of multidrug resistance efflux pump in Mycobacterium avium isolate MAV2 assessed as potentiation of ofloxacin-induced antibacterial activity by measuring ofloxacin MIC at 1/4 MIC incubated for 3 days by MTT assay

Mycobacterium avium [59] = settings: 104 mc'2 4; remark: listed apart in the source
Mycobacterium avium [60] = settings: 104; remark: listed apart in the source
[61] = Safety index, ratio of CC50 for test compound to CC50 for thioridazine for cytotoxicity in human monocyte-derived macrophages; format: cell-based, Macrophage cell line
Mycobacterium avium [62] = assay: Antimycobacterial activity against Mycobacterium avium isolate MAV2 assessed as reduction in bacterial viability incubated for 3 days by MTT assay; format: organism-based; settings: 72 h
[63] = Safety index, ratio of MTC for test compound to MTC for chlorpromazine for cytotoxicity in human monocyte-derived macrophages; format: cell-based, Macrophage cell line
[64] = test system: Mycobacterium avium subsp. avium ATCC 25291; remark: listed apart in the source
[65] = test system: Mycobacterium avium subsp. avium ATCC 25291; remark: listed apart in the source
[66] = test system: Mycobacterium avium subsp. avium ATCC 25291; remark: listed apart in the source
Mycobacterium avium [67] = settings: 104; remark: listed apart in the source

For `CCCOc1ccc(-c2cn(CCN(CC)CC)c3ccccc3c2=O)cc1`, the MIC (Mycobacterium avium [1]) was 4 µg/mL (≈ 10.6 µM), the MIC (Mycobacterium avium [2]) was 256 µg/mL (≈ 676 µM) and the MIC (Mycobacterium avium [3]) was 16 µg/mL (≈ 42.3 µM). The MIC (Mycobacterium avium [4]) was 1020 µg/mL (≈ 2710 µM), the MIC (Mycobacterium avium [5]) was < 2 µg/mL and the MIC (Mycobacterium avium [6]) was 128 µg/mL (≈ 338 µM). The MIC (Mycobacterium avium [7]) was 128 µg/mL (≈ 338 µM), the MIC (Mycobacterium avium [8]) was > 512 µg/mL and the MIC (Mycobacterium avium [9]) was 4 µg/mL (≈ 10.6 µM). For the same compound, the MIC (Mycobacterium avium [10]) was 32 µg/mL (≈ 84.5 µM), the MIC (Mycobacterium avium [11]) was 64 µg/mL (≈ 169 µM) and the MIC (Mycobacterium avium [12]) was 0.5 µg/mL (≈ 1.32 µM). The MIC (Mycobacterium avium [13]) was 6.25 µg/mL (≈ 16.5 µM), the MIC (Mycobacterium avium [14]) was 1 µg/mL (≈ 2.64 µM) and the MIC (Mycobacterium avium [15]) was 128 µg/mL (≈ 338 µM). For the same compound, the MIC (Mycobacterium avium [16]) was 512 µg/mL (≈ 1350 µM), the MIC (Mycobacterium avium [17]) was 12.5 µg/mL (≈ 33 µM) and the MIC (Mycobacterium avium [18]) was 2 µg/mL (≈ 5.28 µM). For the same compound, the MIC (Mycobacterium avium [19]) was 8 µg/mL (≈ 21.1 µM), the MIC (Mycobacterium avium [20]) was 6.25 µg/mL (≈ 16.5 µM) and the MIC (Mycobacterium avium [21]) was 12.5 µg/mL (≈ 33 µM). For the same compound, the MIC (Mycobacterium avium [22]) was 3.12 µg/mL (≈ 8.26 µM), the selectivity ratio [23] was 4 to 6 and the MIC [24] was 256 µg/mL (≈ 676 µM). The MIC [25] was 16 µg/mL (≈ 42.3 µM), the MIC (Mycobacterium avium [26]) was 2 µg/mL (≈ 5.28 µM) and the MIC (Mycobacterium avium [27]) was 32 µg/mL (≈ 84.5 µM). For the same compound, the MIC (Mycobacterium avium [28]) was 16 µg/mL (≈ 42.3 µM), the MIC (Mycobacterium avium [29]) was 32 µg/mL (≈ 84.5 µM) and the MIC (Mycobacterium avium [30]) was 4 µg/mL (≈ 10.6 µM). It also gave an MIC (Mycobacterium avium [31]) of 256 µg/mL (≈ 676 µM), an MIC (Mycobacterium avium [32]) of 256 µg/mL (≈ 676 µM) and an MIC (Mycobacterium avium [33]) of 256 µg/mL (≈ 676 µM). For the same compound, the MIC [34] was 8 µg/mL (≈ 21.1 µM), the MIC (Mycobacterium avium [35]) was 16 µg/mL (≈ 42.3 µM) and the MIC (Mycobacterium avium [36]) was 16 µg/mL (≈ 42.3 µM). For the same compound, the MIC (Mycobacterium avium [37]) was 12.5 µg/mL (≈ 33 µM), the MIC (Mycobacterium avium [38]) was 2 µg/mL (≈ 5.28 µM) and the MIC (Mycobacterium avium [39]) was 32 µg/mL (≈ 84.5 µM). For the same compound, the MIC (Mycobacterium avium [40]) was 256 µg/mL (≈ 676 µM), the MIC (Mycobacterium avium [41]) was 256 µg/mL (≈ 676 µM) and the MIC (Mycobacterium avium [42]) was 1 µg/mL (≈ 2.64 µM). The MIC [43] was 16 µg/mL (≈ 42.3 µM), the MIC (Mycobacterium avium [44]) was 4 µg/mL (≈ 10.6 µM) and the MIC (Mycobacterium avium [45]) was 8 µg/mL (≈ 21.1 µM). The MIC (Mycobacterium avium [46]) was 0.5 µg/mL (≈ 1.32 µM), the MIC (Mycobacterium avium [47]) was 8 µg/mL (≈ 21.1 µM) and the MIC (Mycobacterium avium [48]) was 4 µg/mL (≈ 10.6 µM). It also gave an MIC (Mycobacterium avium [49]) of 6.25 µg/mL (≈ 16.5 µM), an MIC (Mycobacterium avium [50]) of 16 µg/mL (≈ 42.3 µM) and an MIC [51] of 25 µg/mL (≈ 66 µM). The MIC (Mycobacterium avium [52]) was 3.12 µg/mL (≈ 8.26 µM), the MIC (Mycobacterium avium [53]) was 1 µg/mL (≈ 2.64 µM) and the MIC [54] was 8 µg/mL (≈ 21.1 µM). The MIC (Mycobacterium avium [55]) was 2 µg/mL (≈ 5.28 µM), the MIC (Mycobacterium avium [56]) was 4 µg/mL (≈ 10.6 µM) and the MIC (Mycobacterium avium [57]) was 6.25 µg/mL (≈ 16.5 µM). For the same compound, the MIC (Mycobacterium avium [58]) was 2 µg/mL (≈ 5.28 µM), the MIC (Mycobacterium avium [59]) was 4 µg/mL (≈ 10.6 µM) and the MIC (Mycobacterium avium [60]) was 16 µg/mL (≈ 42.3 µM). It also gave a selectivity ratio [61] of 4 to 6, an MIC (Mycobacterium avium [62]) of 256 µg/mL (≈ 676 µM) and a selectivity ratio [63] of 2 to 4. The MIC [64] was 64 µg/mL (≈ 169 µM), the MIC [65] was 128 µg/mL (≈ 338 µM) and the MIC [66] was 8 µg/mL (≈ 21.1 µM). It also gave an MIC (Mycobacterium avium [67]) of 3.12 µg/mL (≈ 8.26 µM).
